Results published in patent publication US8445533B2, “Andrographolide derivatives to treat viral infections” (Cornell Research Foundation, Inc., priority 2004, dated 2013).
Converted amounts (≈) assume the structure as drawn. Where two headings read alike, the source gives them in different places.

Legend:
[1] = system: HCV replicon subgenomic 1b Strain N; assay: HCV replicon SEAP reporter assay, subgenomic 1b Strain N; type: cell-based, hepatitis C virus; settings: 4 days
Protocol: (§1) HCV replicon—SEAP (secreted alkaline phosphatase) cell lines have been described previously. Low passage cell stocks of cell lines stored frozen (−160° C.) were used in the assays. Serial dilutions of test compounds were made from initial stocks and each concentration plated in 96-well plates. Low passage HCV replicon-bearing cells were then trypsinized, counted and seeded into the wells. The plates were incubated at 37° C. in a CO2 incubator for 4 days. The culture supernatant was then removed from each well and heat inactivated for 30 min at 65° C. SEAP activity was measured and EC50 values calculated by comparing SEAP present in drug-treated and untreated wells. Cytotoxicity produced by compounds during screening was evaluated by MTT assay at the end of the incubation period.
(§2) Growth medium from each well was aspirated prior to the addition of lysis solution followed by vigorous pipetting. Each lysate was processed using DNase I treatment. Total RNA was eluted into orgainic carbon-free water and converted into cDNA enzymatically.

[2] = system: HCV replicon subgenomic 1a; assay: HCV replicon SEAP reporter assay, subgenomic 1a; type: cell-based, hepatitis C virus; settings: 4 days
Protocol: as §1, §2

[3] = system: HCV replicon-bearing cells (subgenomic 1b Strain N); assay: MTT cytotoxicity in HCV replicon cells, subgenomic 1b Strain N; type: cell-based, human; settings: 4 days
Protocol: as §1

[4] = system: HCV replicon-bearing cells (subgenomic 1a); assay: MTT cytotoxicity in HCV replicon cells, subgenomic 1a; type: cell-based, human; settings: 4 days
Protocol: as §1

[5] = system: tumor cell lines; settings: cited from earlier work
[6] = system: KB; settings: cited from earlier work
[7] = system: P388 lymphocytic leukemia; settings: cited from earlier work
[8] = system: isolated rat hepatocytes; settings: ex vivo isolated rat hepatocytes; cited from earlier work
[9] = system: proprotein convertase-1; settings: cited from earlier work
[10] = system: proprotein convertase-7; settings: cited from earlier work
[11] = biological target: funin (Homo sapiens, UniProt P09958); settings: cited from earlier work
[12] = in vitro; settings: woodchuck
Source text: (§3) Woodchuck primary hepatocyte cultures and hepatic cell lines were inoculated with a cytopathogenic isolate of BVDV.

[13] = system: cytopathogenic isolate of BVDV; assay: BVDV viral yield assay in woodchuck primary hepatocytes
Source text: as §3

[14] = system: cytopathogenic isolate of BVDV; assay: BVDV antiviral assay in woodchuck hepatic cell line WCH-8
Source text: as §3

[15] = system: HIV-1 (IIIB); settings: Chang et al. 1991; cited from earlier work
[16] = system: cpBVDV isolate NADL; assay: BVDV antiviral assay in NCL bovine uterine cell line (viral-induced cell killing, viral yield); settings: Example 2B
Protocol: Derivatives of andrographolide were tested in an in vitro assay which measures the antiviral potential against a cytopathogenic isolate of BVDV in a permissive bovine uterine cell line.
The capacity to measure the effectiveness of compounds to reduce BVDV replication in vitro provides a system for preclinical assessment of potential drugs for treatment of viral infection and for analyzing possible mechanisms of action.
Cell lines were incubated in a humid atmosphere of 5% CO2 at 37° C. Cells were passaged by dissociation of the monolayer with a solution of trypsin-EDTA (Life Technologies), diluted in culture medium, and split 1:5 to new culture flasks.
A method to measure visible cell numbers involved staining with methylene blue (Sigma, St. Louis, Mo.) and reading the absorbance of the stain in solution after elution from the cells. […] The methylene blue staining solution was removed from the cultures and the culture plates were rinsed in several volumes of H^2O. The culture plates were allowed to air dry; this was followed by elution of the methylene blue stain from the fixed cells by incubation at controlled room temperature in a solution of PBS/50% ethanol and 1% acetic acid for 1 hour, with agitation. The absorbance of the methylene blue dye in solution was measured by an ELISA plate reader (Model EL311; Bio-Tek Instruments, Inc., Winooski, Vt.) at 630 nm. In all experiments described, calculation of cell numbers for each experimental data point was expressed as the average of three wells per experimental treatment (dilution, titer, or antiviral concentration).
The NCL cell line was grown to confluence and passaged to 96 well microtiter plates (Microtest™ 96; Becton Dickinson Labware, Franklin Lakes, N.J.), at a density of 2×10^4 cells/well (0.34 cm^2) and incubated for 1 hour to allow cell attachment. After attachment, the cells of one-half of each microtiter plate were inoculated with a cpBVDV stock diluted to yield a multiplicity of infection (m.o.i.) of 0.01 TCID50 and incubated for 3-6 hours to allow viral attachment and penetration. Following this incubation period, the inoculum was removed and replaced with fresh growth medium.
Three quarters of both cpBVDV infected and uninfected cells were grown in the presence of antiviral compound. The remaining quarter of the microassay plate served as positive (cpVDV infected) and negative (uninfected) control wells. The medium was changed daily and cell killing was measured by the methylene blue assay 3 days post-infection with BVDV.
The culture medium was collected on day 3 post-infection and the reduction in viral yield after antiviral treatment was determined. Supernatant collected from experimental wells was serially diluted ten-fold and used to infect newly prepared NCL cells. the end-point titer, the last dilution at which complete cell killing was evident, was determined in a similar 96 well format using the methylene blue assay for cell killing 5 days after infection.
Cell killing due either to viral infection or to drug cytotoxicity was calculated for each experimental data point and plotted. Regression analysis (curve fitting) was performed with SigmaPlot4.0 (Jandel Sci, San Rafael, Calif.) using the Regression Wizard library of equations which best fit the collected data.

[17] = system: uninfected NCL cells; assay: Cytotoxicity toward uninfected NCL cells (methylene blue assay); type: cell-based, bovine; settings: Example 2B
Protocol: A method to measure visible cell numbers involved staining with methylene blue (Sigma, St. Louis, Mo.) and reading the absorbance of the stain in solution after elution from the cells. […] The methylene blue staining solution was removed from the cultures and the culture plates were rinsed in several volumes of H^2O. […] The absorbance of the methylene blue dye in solution was measured by an ELISA plate reader (Model EL311; Bio-Tek Instruments, Inc., Winooski, Vt.) at 630 nm. In all experiments described, calculation of cell numbers for each experimental data point was expressed as the average of three wells per experimental treatment (dilution, titer, or antiviral concentration).
Three quarters of both cpBVDV infected and uninfected cells were grown in the presence of antiviral compound. […] The medium was changed daily and cell killing was measured by the methylene blue assay 3 days post-infection with BVDV.
Cell killing due either to viral infection or to drug cytotoxicity was calculated for each experimental data point and plotted. […]

[18] = system: WCH-8 cells; assay: Cytotoxicity in WCH-8 cells
Source text: as §3

[19] = system: woodchuck primary hepatocytes; assay: Cytotoxicity in woodchuck primary hepatocytes
Source text: as §3

Chain of funin (P09958 108-794): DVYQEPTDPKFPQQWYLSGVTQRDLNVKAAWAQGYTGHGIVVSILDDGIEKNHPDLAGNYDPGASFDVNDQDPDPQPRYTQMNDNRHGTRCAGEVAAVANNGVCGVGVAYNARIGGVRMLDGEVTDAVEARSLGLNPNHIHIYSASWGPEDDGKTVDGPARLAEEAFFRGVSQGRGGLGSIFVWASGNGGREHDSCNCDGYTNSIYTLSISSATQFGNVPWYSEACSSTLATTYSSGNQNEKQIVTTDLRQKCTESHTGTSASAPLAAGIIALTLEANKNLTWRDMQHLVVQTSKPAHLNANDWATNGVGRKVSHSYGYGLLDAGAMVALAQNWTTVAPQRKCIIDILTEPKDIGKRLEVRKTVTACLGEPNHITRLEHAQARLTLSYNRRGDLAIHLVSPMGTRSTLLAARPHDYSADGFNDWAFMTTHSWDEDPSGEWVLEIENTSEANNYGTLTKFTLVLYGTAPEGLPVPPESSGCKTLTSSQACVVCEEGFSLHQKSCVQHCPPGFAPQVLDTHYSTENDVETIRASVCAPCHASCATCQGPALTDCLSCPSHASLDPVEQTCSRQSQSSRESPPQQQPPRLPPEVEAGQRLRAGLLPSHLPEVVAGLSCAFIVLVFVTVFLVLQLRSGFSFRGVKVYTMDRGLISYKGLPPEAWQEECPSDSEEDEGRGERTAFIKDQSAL

C[C@@]1(O)[C@H](O)[C@@H](CO)O[C@H]1n1ccc(N)nc1=O [2′-MeC, B-D-2′-methyl-cytidine]
EC50 [1]: 25.1 µM
EC50 [2]: 61.6 µM
IC50 [3]: > 100 µM
IC50 [4]: > 100 µM

C=C1CCC2[C@](C)(CC[C@@H](O)[C@@]2(C)CO)C1/C=C/C1=CCOC1=O (some centres unmarked) [14-deoxy-11,12-didehydroandrographolide]
cytotoxic activity [5]: no cytotoxic activity

C=C1CC[C@@H]2[C@](C)(CO)[C@H](O)CC[C@@]2(C)[C@@H]1C/C=C1/C(=O)OC[C@H]1O [Andrographolide]
cytotoxic activity [6]: significant cytotoxic activity
cytotoxic activity [7]: significant cytotoxic activity
protective activity against paracetamol-induced toxicity [8]: protective activity
enzyme inhibition [9]: relatively little enzyme inhibition
enzyme inhibition [10]: relatively little enzyme inhibition
enzyme inhibition [11]: relatively little enzyme inhibition

C=C1CC[C@@H]2[C@](C)(CO[C@@H]3O[C@H](CO)[C@@H](O)[C@H](O)[C@H]3O)CCC[C@@]2(C)[C@@H]1CCC1=CCOC1=O [neoandrographolide]
cytotoxic activity ([5]; tumor cell lines): no cytotoxic activity

NC(=O)c1ncn([C@@H]2O[C@H](CO)[C@@H](O)[C@H]2O)n1 [ribavirin, reference compound]
CC50 [12]: 0.35 µg/mL (≈ 1.43 µM)
tEC90 [13]: 2.9 µg/mL
EC50 ([14]; Bovine viral diarrhea virus isolates and strains, in Marmota monax, read-out: ckEC50): 0.27 µg/mL (≈ 1.11 µM)

dehydroandrographolide succinic acid monoester [DASM]
minimal concentration inhibitory to HIV-1 (IIIB) [15]: 1.6 to 3.1 pg/mL

interferon-α
concentration range of reduction in viral-induced cell killing [16]: 0.1 to 1000 ng/mL
maximal reduction in viral-induced cell killing [16]: 80%
reduction in viral yields [16]: 2 logs
S.I. (CC50/EC90) ([16]; bovine uterine cell line): 6667
ckEC50 ([16]; bovine uterine cell line): 0.0074 ng/mL
tEC90 ([16]; bovine uterine cell line): 0.15 ng/mL
tEC90 ([16]; bovine uterine cell line, listed as IFN-α): 150 ng/mL
CC50 ([17]; bovine uterine cell line): ≧1000 ng/ml
cytotoxicity, result in words ([17]; over the range tested): did not exhibit cytotoxicity over the range tested
CC50 [18]: ≧1000 ng/ml
cytotoxicity, result in words ([18]; up to a dose of 1000 ng/ml): No cytotoxicity was observed
CC50 [19]: ≧1000 ng/ml
cytotoxicity, result in words ([19]; over the range tested): no cytotoxicity was observed over the range tested
tEC90 [13]: 0.825 µg/mL
ckEC50 ([14]; WCH-8 cells): 288 ng/mL
tEC90 ([14]; WCH-8 cells): 64 ng/mL
